Patent US5849695A, “Parathyroid hormone analogues useful for treatment of osteoporosis and disorders of calcium meatabolism in mammals” (The Regents of the University of California, priority 1993, dated 1998)
Like-named read-outs stand apart in the source and are kept apart here.

How the values were obtained:
PTH receptor [1] = target: T1, PTH receptor (Canis lupus familiaris, UniProt Q9TU31); assay type: binding, canine
T1 construct: canine renal plasma membranes; from tissue; host or cells: canine kidney (renal plasma membranes)
T1 sequence (Q9TU31 29-595): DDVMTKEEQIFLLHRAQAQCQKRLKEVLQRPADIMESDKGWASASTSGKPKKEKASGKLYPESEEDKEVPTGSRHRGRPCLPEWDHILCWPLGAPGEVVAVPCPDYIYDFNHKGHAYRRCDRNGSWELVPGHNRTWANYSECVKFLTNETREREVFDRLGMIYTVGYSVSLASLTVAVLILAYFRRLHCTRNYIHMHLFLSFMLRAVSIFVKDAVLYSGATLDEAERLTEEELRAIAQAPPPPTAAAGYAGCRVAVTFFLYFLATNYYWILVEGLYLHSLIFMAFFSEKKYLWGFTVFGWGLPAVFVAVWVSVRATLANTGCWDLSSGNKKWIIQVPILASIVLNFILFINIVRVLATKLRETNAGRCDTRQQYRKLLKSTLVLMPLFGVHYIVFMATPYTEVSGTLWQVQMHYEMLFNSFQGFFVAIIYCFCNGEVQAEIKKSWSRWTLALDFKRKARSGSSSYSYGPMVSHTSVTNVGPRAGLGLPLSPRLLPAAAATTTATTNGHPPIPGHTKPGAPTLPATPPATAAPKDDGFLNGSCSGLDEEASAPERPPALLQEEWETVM
Description: (§1) Receptor binding assays were carried out in canine renal plasma membranes and in UMR 106-H5 rat osteosarcoma cells as previously described in detail (Ref. 14,32), using ^125 I-labeled PTH(1-34)amide as the radioligand. Binding potency (IC50) was quantified as the concentration of unlabeled peptide required for half-maximal displacement of the radioligand. […] Adenylate cyclase activity was assessed in canine renal membranes by the conversion of [α-32p ] ATP to [^32 P] cyclic AMP, essentially as described, except for the addition of 100 micromolar GTP (Ref. 33,34). Adenylate cyclase activity in UMR 106-H5 cells was assessed essentially as described (Ref. 35). In brief, cells were incubated with [3H]adenine 1 micro Ci/ml of serum-free MEM for two hours at 37° C. to label the endogenous ATP pool. Cells were then exposed to 0.4 mM IBMX for 10 min, followed by the appropriate peptide for an additional 10 min at ambient temperature. The cells are then scraped in 20% TCA, and [3H]cyclic AMP is isolated by the column procedure of Salomon et al. (Ref. 36). Potency in the adenylate cyclase assays (Ka) is the concentration of peptide producing half-maximal enzyme activation.

PTH receptor [2] = target: T1, PTH receptor; assay type: biochemical, canine; settings: for RENAL MEMBRANES Canine Activity (AC*): maximally effective dose; for antagonism of PTH-stimulated adenylate cyclase: canine renal plasma membranes and UMR 106-H5 cells (FIG. 8)
Description: as §1

PTH receptor [3] = target: T2, PTH receptor (Rattus norvegicus, UniProt P25961); assay type: binding
T2 construct: endogenous in cells; host or cells: UMR 106-H5 rat osteosarcoma cells
T2 sequence (P25961 27-591): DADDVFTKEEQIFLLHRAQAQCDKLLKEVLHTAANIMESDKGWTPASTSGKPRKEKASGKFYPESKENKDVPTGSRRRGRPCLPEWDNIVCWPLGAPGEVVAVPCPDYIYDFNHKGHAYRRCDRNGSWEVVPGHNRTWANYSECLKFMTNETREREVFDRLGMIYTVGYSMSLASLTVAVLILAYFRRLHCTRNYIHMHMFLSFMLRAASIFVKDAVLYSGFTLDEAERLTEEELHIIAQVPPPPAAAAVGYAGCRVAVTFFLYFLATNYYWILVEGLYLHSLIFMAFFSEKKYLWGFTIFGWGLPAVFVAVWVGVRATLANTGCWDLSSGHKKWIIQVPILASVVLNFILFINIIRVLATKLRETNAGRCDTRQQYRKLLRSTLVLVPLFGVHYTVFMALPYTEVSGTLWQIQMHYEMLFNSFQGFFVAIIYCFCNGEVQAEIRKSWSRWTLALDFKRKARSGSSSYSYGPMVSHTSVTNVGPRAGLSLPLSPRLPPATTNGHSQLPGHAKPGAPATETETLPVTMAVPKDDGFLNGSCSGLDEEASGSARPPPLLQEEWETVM
Description: as §1

PTH receptor [4] = target: T2, PTH receptor; assay type: cell-based; settings: for UMR106-H5 CELLS Rat Bone Activity (AC*): maximally effective dose
Description: as §1, with “Assays were conducted using […] cells. These assays were performed as described in Cohen et al. (1991), J. Biological Chem., 266(3), 1997 and in the Experimental section, e.g. Example 11. Receptor” for “Receptor”

[5] = Circular dichroism: alpha-helical content; assay type: physicochemical; settings: for % HELIX TFE (30%) / % HELIX TFE (0%): Table 1, CD; for % HELIX TFE (30%): 30% trifluoroethanol; for % HELIX TFE (0%): absence of trifluoroethanol
Description: Far ultraviolet circular dichroism (CD) spectra were obtained in phosphate buffer (ph 7.0) at 25±1° C. in a 1.0 mm cell on an Instruments SA Jobin Yvon circular dichrograph calibrated with (+) 10-camphorsulfonic acid and epiandosterone. Peptides were analyzed at concentrations ranging from 0.1-0.3 mg/ml. The mean molar ellipticity per residue at 222 nm ([⊖]222 nm-, deg cm^2 /dmol) was used to derive estimates of alpha-helicity according to the method of Taylor and Kaiser (ref. 29).

PTH receptor [6] = target: T3, PTH receptor (Homo sapiens, UniProt Q03431); assay type: cell-based; design: In intact rat (UMR-106) and human (SaOS-2) bone cell lines; endogenous in cells; host or cells: SaOS-2 human bone (osteosarcoma) cells
T3 sequence (Q03431 27-593): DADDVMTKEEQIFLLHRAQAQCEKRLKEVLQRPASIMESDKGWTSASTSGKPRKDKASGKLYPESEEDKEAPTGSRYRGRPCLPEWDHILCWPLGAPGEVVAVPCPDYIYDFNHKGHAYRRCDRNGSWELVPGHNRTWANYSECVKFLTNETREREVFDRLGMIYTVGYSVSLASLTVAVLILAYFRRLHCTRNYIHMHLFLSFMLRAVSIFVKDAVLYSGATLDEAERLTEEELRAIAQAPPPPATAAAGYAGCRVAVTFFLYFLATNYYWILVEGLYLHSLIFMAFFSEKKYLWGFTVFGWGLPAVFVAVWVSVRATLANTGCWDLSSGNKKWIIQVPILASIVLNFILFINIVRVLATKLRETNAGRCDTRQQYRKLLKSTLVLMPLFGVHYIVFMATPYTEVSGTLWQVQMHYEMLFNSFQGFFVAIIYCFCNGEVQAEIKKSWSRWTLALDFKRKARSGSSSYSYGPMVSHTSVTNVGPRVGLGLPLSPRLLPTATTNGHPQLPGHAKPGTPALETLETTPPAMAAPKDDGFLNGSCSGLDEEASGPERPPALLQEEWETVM
Description: The renal membrane assay values listed reflect the effect of the polypeptide analogue with kidney tissue receptors. The UMR-106-H5 assay values reflect the effect of the peptide analogue with rat bone tissue receptors. The Sa05-2 assay values reflect the effect of the peptides for human bone tissue receptors.

[7] = Table 1, relative to bPTH(1-34) = 100%
[8] = Table 1, half-maximal enzyme activation, relative to bPTH(1-34) = 100%

Q: With CC[C@H](C)[C@H](NC(=O)[C@H](CCC(=O)O)NC(=O)[C@H](CO)NC(=O)[C@@H](NC(=O)[C@H](C)N)C(C)C)C(=O)N[C@@H](CCC(N)=O)C(=O)N[C@@H](Cc1ccccc1)C(=O)N[C@@H](CCSC)C(=O)N[C@@H](Cc1c[nH]cn1)C(=O)N[C@@H](CC(N)=O)C(=O)N[C@@H](CC(C)C)C(=O)NCC(=O)N[C@@H](CCCCN)C(=O)N[C@@H](Cc1c[nH]cn1)C(=O)N[C@@H](CC(C)C)C(=O)N[C@@H](CO)C(=O)N[C@@H](CO)C(=O)N[C@@H](CCSC)C(=O)N[C@@H](CCC(=O)O)C(=O)N[C@@H](CCCNC(=N)N)C(=O)N[C@H](C(=O)N[C@@H](CCC(=O)O)C(=O)N[C@@H](Cc1c[nH]c2ccccc12)C(=O)N[C@@H](CC(C)C)C(=O)N[C@@H](CCCNC(=N)N)C(=O)N[C@@H](CCCCN)C(=O)N[C@@H](CCCCN)C(=O)N[C@@H](CC(C)C)C(=O)N[C@@H](CCC(N)=O)C(=O)N[C@@H](CC(=O)O)C(=O)N[C@H](C(=O)N[C@@H](Cc1c[nH]cn1)C(=O)N[C@@H](CC(N)=O)C(=O)N[C@@H](Cc1ccccc1)C(=O)O)C(C)C)C(C)C [bPTH (1-34), bPTH(1-34), reference compound] as the compound, how does the “RENAL MEMBRANES Canine Potency (B)” value (PTH receptor [1]) read?
A: 100%

Q: And the “RENAL MEMBRANES Canine Potency (AC)” value (PTH receptor [2])?
A: 100%

Q: What about the “RENAL MEMBRANES Canine Activity (AC*)” value (PTH receptor [2]; [7]) of the same compound?
A: 100%

Q: What about the “UMR106-H5 CELLS Rat Bone Potency (B)” value (PTH receptor [3]) of the same compound?
A: 100%

Q: What about the “UMR106-H5 CELLS Rat Bone Potency (AC)” value (PTH receptor [4]) of the same compound?
A: 100%

Q: And the “UMR106-H5 CELLS Rat Bone Activity (AC*)” value (PTH receptor [4]; [7])?
A: 100%

Q: With [Phe^3 ]bPTH(1-34) as the compound, how does the “antagonism of PTH-stimulated adenylate cyclase” value (from here on “antagonism”) (PTH receptor [2]) read?
A: partial PTH antagonists

Q: Which “RENAL MEMBRANES Canine Potency (B)” value (PTH receptor [1]; [7]) does the source give for [Tyr^3 ]bPTH(1-34) here?
A: 2%

Q: What about the “RENAL MEMBRANES Canine Potency (AC)” value (PTH receptor [2]; [8]) of the same compound?
A: 1.2%

Q: And the “RENAL MEMBRANES Canine Activity (AC*)” value (PTH receptor [2]; [7])?
A: 28%

Q: And the “agonist behaviour in the adenylate cyclase assay” value (PTH receptor [2]; both the bone and kidney systems)?
A: partial agonist activity

Q: And the “UMR106-H5 CELLS Rat Bone Potency (B)” value (PTH receptor [3]; [7])?
A: 0.9%

Q: What about the “UMR106-H5 CELLS Rat Bone Activity (AC*)” value (PTH receptor [4]; [7]) of the same compound?
A: 100%

Q: What about the “UMR106-H5 CELLS Rat Bone Potency (AC)” value (PTH receptor [4]; [7]) of the same compound?
A: 2.5%

Q: What about the “activity in adenylate cyclase compared with renal adenylate cyclase” value (PTH receptor [4]; UMR-106-H5 cells) of the same compound?
A: increased activity

Q: What about the “% HELIX TFE (30%)” value [5] of the same compound?
A: 99%

Q: And the “% HELIX TFE (0%)” value [5]?
A: 34%

Q: For [Ala^6 ]bPTH(1-34), which “potency in human bone cells versus renal membranes” value (PTH receptor [6]; human bone cells and renal membranes) is on record?
A: equipotent

Q: With [Phe^6 ]bPTH(1-34) as the compound, how does the “binding activity retained, of the activity of bPTH(1-34)” value (PTH receptor [1]; renal membranes) read?
A: 1%

Q: And the “antagonism” value (PTH receptor [2])?
A: inhibition

Q: And the “antagonism” value (PTH receptor [2]; listed as [Phe^6 ]PTH(1-34))?
A: partial PTH antagonists

Q: What about the “binding activity retained, of the activity of bPTH(1-34)” value (PTH receptor [3]; osteosarcoma cells) of the same compound?
A: 4%

Q: Which “RENAL MEMBRANES Canine Potency (B)” value (PTH receptor [1]; [7]) does the source give for [Lys^3 ]bPTH(1-34) here?
A: 14%

Q: And the “RENAL MEMBRANES Canine Potency (AC)” value (PTH receptor [2]; [8])?
A: 1.5%

Q: What about the “RENAL MEMBRANES Canine Activity (AC*)” value (PTH receptor [2]; [7]) of the same compound?
A: 78%

Q: And the “UMR106-H5 CELLS Rat Bone Potency (B)” value (PTH receptor [3]; [7])?
A: 3.5%

Q: And the “UMR106-H5 CELLS Rat Bone Activity (AC*)” value (PTH receptor [4]; [7])?
A: 95%

Q: What about the “UMR106-H5 CELLS Rat Bone Potency (AC)” value (PTH receptor [4]; [7]) of the same compound?
A: 14%

Q: What about the “bioactivity in bone cell assays versus kidney” value (PTH receptor [4]; both bone cell assays) of the same compound?
A: enhanced bioactivity

Q: And the “% HELIX TFE (30%)” value [5]?
A: 81%

Q: What about the “% HELIX TFE (0%)” value [5] of the same compound?
A: 29%

Q: And the “SAOS2 CELLS Human Bone Activity (AC)” value (PTH receptor [6]; [7])?
A: 100%

Q: And the “SAOS2 CELLS Human Bone Potency (AC)” value (PTH receptor [6]; [7])?
A: 20%

Q: For [His^3 ]bPTH(1-34), which “RENAL MEMBRANES Canine Potency (B)” value (PTH receptor [1]; [7]) is on record?
A: 55%

Q: And the “RENAL MEMBRANES Canine Potency (AC)” value (PTH receptor [2]; [8])?
A: 2.5%

Q: And the “RENAL MEMBRANES Canine Activity (AC*)” value (PTH receptor [2]; [7])?
A: 100%

Q: What about the “UMR106-H5 CELLS Rat Bone Potency (B)” value (PTH receptor [3]; [7]) of the same compound?
A: 9%

Q: What about the “UMR106-H5 CELLS Rat Bone Activity (AC*)” value (PTH receptor [4]; [7]) of the same compound?
A: 100%

Q: And the “UMR106-H5 CELLS Rat Bone Potency (AC)” value (PTH receptor [4]; [7])?
A: 75%

Q: And the “potency for adenylate cyclase activation compared with renal adenylate cyclase” value (PTH receptor [4]; UMR-106-H5 cells)?
A: increased potency

Q: And the “% HELIX TFE (30%)” value [5]?
A: 84%

Q: And the “% HELIX TFE (0%)” value [5]?
A: 35%

Q: For [Glu^3 ]bPTH(1-34), which “retention of binding potency / receptor binding activity” value (PTH receptor [1]; relative to bPTH(1-34), similar in the kidney and bone systems) is on record?
A: less than 0.1%

Q: What about the calculated alpha-helical content ([5]; aqueous solvent conditions) of the same compound?
A: 19%
